This passage reports activity results from publication PMC10455244, “Alpha-Mangostin: A Potent Inhibitor of TRPV3 and Pro-Inflammatory Cytokine Secretion in Keratinocytes” (International Journal of Molecular Sciences, 2023).

This experiment has as its target T1, TRPV3 (Homo sapiens, UniProt Q8NET8).
T1 sequence (Q8NET8 1-790): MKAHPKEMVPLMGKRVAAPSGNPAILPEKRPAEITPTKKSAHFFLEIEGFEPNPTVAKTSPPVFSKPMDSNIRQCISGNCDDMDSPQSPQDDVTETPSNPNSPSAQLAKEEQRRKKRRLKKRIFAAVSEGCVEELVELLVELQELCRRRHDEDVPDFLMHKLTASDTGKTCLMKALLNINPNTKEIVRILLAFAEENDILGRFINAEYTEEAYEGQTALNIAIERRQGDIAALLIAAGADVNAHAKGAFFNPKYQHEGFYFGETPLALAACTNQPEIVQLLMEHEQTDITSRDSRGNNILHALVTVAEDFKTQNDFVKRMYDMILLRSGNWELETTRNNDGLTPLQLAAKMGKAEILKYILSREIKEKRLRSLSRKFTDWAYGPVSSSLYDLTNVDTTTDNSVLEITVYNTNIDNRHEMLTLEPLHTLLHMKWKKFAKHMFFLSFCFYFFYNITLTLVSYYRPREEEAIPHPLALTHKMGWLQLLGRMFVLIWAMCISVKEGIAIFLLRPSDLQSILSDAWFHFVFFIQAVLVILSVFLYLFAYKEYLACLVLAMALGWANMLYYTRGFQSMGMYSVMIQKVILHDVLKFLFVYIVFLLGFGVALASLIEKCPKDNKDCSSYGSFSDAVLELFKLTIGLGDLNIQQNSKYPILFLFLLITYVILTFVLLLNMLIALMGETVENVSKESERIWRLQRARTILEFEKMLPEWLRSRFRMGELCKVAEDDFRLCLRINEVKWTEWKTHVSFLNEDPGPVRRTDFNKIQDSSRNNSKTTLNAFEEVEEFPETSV
The experiment in a line: Whole-cell patch-clamp, 2-APB-evoked TRPV3 current in normal human epidermal keratinocytes (NHEK). Further details: host or cells: NHEK. The conditions noted are these: 100 µM 2-APB, −100 mV, read-out: TRPV3 current inhibited to (normalized to maximum 2-APB response). It is filed as cell-based. In general terms: In patch-clamp work, channel activity is measured electrically.

The structures appear in SMILES notation.

With `COc1c(O)cc2oc3cc(O)c(CC=C(C)C)c(O)c3c(=O)c2c1CC=C(C)C` [Alpha-mangostin], the activity at 0.3 µM (0.3 µM) worked out at 75.1%. For the same compound, the activity at 3 µM (3 µM) worked out at 27%.
